Data on 18 compounds can be found in US9650339B2, “Inhibitors of histone demethylases” (Gilead Sciences, Inc., priority 2013, dated 2017).

Where only a bound is given, the exact number is not on record here.

One assay addresses T1, KDM6B (JMJD3) (Homo sapiens, UniProt O15054).
T1 construct: 1043-end; purchased BPS; host or cells: Bac (baculovirus system)
Kind of assay: Histone lysine demethylase AlphaLISA assay, KDM6B. Conditions: read-out: KDM6B HDME Inhibition IC50. In kind it is biochemical. On the procedure: Assays are performed analogously to the protocol described by PerkinElmer (Roy et al. PerkinElmer Technical Note: AlphaLISA #12, April 2011)
Enzymes are dissolved in enzyme buffer and incubated for 10 min before being added to 3% DMSO solutions of compounds in enzyme buffer. Incubated for another 10 minutes, before substrate solution is added and the reaction mixture is incubated at room temperature. 10 μL acceptor beads, suspended in Epigenetic Buffer (Perkin Elmer AL008) from stock, are added and the suspension is incubated in the dark at room temperature, before a suspension of streptavidin donor beads (Perkin Elmer 6760002) in Epigenetic Buffer is added. After incubation at room temperature in the dark the plates are read. […]
BK27M3: Biotin-ATKAAR(Kme3)SAPATGGVKKPHRY-NH2? (Caslo, Denmark) […]
Substrate Solution: Substrate, 25 μM L-Asc, and 10 μM α-KG in Buffer A.
For orientation: Alpha assays give light when donor and acceptor beads are brought close together.

Another assay deals with T2, KDM5B (Homo sapiens, UniProt Q9UGL1).
T2 construct: (a.a. 1-752); host or cells: U2OS
T2 sequence (Q9UGL1 1-752): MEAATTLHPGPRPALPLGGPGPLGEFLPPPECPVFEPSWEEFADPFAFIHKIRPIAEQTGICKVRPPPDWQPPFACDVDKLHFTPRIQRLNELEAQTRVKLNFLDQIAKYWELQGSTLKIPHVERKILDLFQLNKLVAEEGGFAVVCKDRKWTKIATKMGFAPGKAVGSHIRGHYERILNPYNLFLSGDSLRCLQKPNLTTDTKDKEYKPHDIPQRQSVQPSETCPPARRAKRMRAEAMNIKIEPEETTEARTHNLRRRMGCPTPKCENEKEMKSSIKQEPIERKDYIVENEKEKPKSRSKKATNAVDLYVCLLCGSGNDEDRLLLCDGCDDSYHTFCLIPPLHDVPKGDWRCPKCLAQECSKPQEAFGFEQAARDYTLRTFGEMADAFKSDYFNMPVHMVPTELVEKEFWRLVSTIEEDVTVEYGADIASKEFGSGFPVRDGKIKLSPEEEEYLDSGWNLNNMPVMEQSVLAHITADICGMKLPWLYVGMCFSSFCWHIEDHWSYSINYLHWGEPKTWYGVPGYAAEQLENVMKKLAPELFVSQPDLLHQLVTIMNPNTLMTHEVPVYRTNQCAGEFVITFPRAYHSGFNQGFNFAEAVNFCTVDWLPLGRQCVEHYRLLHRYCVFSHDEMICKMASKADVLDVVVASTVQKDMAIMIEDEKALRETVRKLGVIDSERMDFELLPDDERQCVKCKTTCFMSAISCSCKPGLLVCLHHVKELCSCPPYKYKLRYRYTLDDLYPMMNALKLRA
Briefly: Histone lysine demethylase immunofluorescence assay, U2OS cells transfected with KDM5B. Conditions: U2OS cells transfected with pCMVHA KDM5B; mark detected H3K4me2; 20 hours. It counts as cell-based. In a few lines:
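U2OS cells were transiently transfected with HA-tagged demethylase and reseeded after 6 h into compound-containing DMEM/10% FBS for 20 h. Cells were fixed in formaldehyde and immunostained for HA and the relevant histone methyl mark, then imaged. IC50 is based on mean mark staining in HA+ transfected cells.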

The target in another assay is T3, KDM2B (FBXL10) (Homo sapiens, UniProt Q8NHM5).
T3 sequence (Q8NHM5 1-650): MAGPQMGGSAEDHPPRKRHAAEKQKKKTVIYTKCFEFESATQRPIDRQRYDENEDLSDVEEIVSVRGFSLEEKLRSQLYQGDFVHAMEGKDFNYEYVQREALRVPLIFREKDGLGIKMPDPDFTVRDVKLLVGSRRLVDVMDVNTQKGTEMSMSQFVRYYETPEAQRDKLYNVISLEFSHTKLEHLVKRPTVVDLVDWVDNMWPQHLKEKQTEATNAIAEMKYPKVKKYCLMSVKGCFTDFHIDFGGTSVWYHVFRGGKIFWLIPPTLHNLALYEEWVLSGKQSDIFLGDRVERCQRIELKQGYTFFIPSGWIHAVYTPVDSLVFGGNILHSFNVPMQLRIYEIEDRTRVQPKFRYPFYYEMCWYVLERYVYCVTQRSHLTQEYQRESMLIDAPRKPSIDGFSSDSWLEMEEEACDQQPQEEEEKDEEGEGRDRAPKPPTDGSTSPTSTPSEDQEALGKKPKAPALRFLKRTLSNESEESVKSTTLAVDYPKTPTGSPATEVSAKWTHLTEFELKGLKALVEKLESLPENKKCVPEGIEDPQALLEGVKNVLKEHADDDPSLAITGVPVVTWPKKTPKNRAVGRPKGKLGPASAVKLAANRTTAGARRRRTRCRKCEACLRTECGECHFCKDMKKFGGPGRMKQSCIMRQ
Kind of assay: Histone lysine demethylase AlphaLISA assay, KDM2B. In kind it is biochemical. Conditions: read-out: KDM2B HDME Inhibition IC50. In a few lines: (§1)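 Steps: enzyme equilibrated 10 min in buffer; compounds in 3% DMSO solution added, 10 min; substrate mix added (peptide, 25 μM L-Asc, 10 μM α-KG), room temperature; acceptor beads, then streptavidin donor beads, dark incubations; plate read.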

The target in a further assay is KDM6A (UTX) (Homo sapiens, UniProt O15550). Kind of assay: Histone lysine demethylase AlphaLISA assay, KDM6A. In kind it is biochemical. Conditions: read-out: KDM6A HDME Inhibition IC50. In a few lines:
as §1

Chain of KDM6A (UTX) (O15550 919-1401): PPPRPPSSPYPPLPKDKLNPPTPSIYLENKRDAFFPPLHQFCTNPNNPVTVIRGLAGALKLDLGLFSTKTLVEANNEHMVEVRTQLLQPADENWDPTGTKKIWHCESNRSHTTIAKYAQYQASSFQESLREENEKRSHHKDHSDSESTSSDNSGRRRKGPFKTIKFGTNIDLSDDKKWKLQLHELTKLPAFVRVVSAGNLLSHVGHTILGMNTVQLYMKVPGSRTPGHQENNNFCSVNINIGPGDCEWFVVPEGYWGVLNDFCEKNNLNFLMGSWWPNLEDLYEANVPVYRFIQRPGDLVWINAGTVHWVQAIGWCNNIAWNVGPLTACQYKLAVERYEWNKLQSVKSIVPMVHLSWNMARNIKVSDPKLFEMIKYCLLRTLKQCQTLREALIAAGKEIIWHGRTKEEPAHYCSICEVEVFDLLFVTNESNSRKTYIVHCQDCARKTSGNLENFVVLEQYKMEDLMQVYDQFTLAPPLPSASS
T1 sequence (O15054 1043-1682 isoform O15054-1 limits assumed): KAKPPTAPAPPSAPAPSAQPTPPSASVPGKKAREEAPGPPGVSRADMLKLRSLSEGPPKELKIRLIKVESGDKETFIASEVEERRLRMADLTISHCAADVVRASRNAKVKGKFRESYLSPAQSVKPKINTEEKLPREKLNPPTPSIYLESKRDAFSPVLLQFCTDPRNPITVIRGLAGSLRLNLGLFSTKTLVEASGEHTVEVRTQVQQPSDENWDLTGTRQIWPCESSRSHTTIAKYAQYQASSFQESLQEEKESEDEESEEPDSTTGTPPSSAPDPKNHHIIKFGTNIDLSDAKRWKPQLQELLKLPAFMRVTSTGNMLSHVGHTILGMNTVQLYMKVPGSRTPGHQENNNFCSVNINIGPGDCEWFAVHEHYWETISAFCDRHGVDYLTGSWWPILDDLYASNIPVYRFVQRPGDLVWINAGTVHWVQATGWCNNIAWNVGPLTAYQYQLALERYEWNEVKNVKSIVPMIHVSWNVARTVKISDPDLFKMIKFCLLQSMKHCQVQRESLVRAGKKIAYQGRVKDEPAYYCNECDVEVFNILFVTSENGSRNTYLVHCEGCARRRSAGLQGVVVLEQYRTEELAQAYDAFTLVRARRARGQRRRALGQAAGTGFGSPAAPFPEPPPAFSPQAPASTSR

For `O=Cc1ccnc(CNCC(=O)N2CCC(Cc3ccccc3)CC2)c1` [Compound 106, 2-({[2-(4-benzylpiperidin-1-yl)-2-oxoethyl]-amino}methyl)-pyridine-4-carbaldehyde], the IC50 at KDM6B (JMJD3), against KDM5B, on KDM2B (FBXL10) and at KDM6A (UTX) was greater than 2.5 µM each time.

For `CN(C)C/C=C/CNCc1cc(C=O)ccn1` [Compound 98, 2-({[(2E)-4-(dimethylamino)but-2-en-1-yl]amino}-methyl)pyridine-4-carbaldehyde], the IC50 is greater than 2.5 µM on KDM6B (JMJD3), less than 0.25 µM on KDM5B, greater than 2.5 µM on KDM2B (FBXL10) and greater than 2.5 µM on KDM6A (UTX).

`CCN(CC)CCCCNCc1cc(C2NCCN2C)ccn1` (stereo not drawn) [Compound 65, [4-(diethylamino)-butyl]({[4-(1-methylimidazolidin-2-yl)pyridin-2-yl]methyl})amine]: the IC50 is greater than 2.5 µM at KDM6B (JMJD3), less than 0.25 µM on KDM5B, greater than 2.5 µM at KDM2B (FBXL10) and greater than 2.5 µM on KDM6A (UTX).

On to `COc1ccccc1CN1CCC(NC(=O)CNCc2cc(CN)ccn2)CC1` [Compound 9, 2-({[4-(aminomethyl)pyridin-2-yl]methyl}amino)-N-{1-[(2-methoxyphenyl)methyl]-piperidin-4-yl}acetamide], for which the IC50 on KDM6B (JMJD3) was greater than 2.5 µM; against KDM5B it was 0.25 to 2.5 µM; at KDM2B (FBXL10), greater than 2.5 µM; on KDM6A (UTX), greater than 2.5 µM.

Regarding `CCN(CC)CCCCN(Cc1cc(CNC(=O)C(F)(F)F)ccn1)C(=O)C(F)(F)F` [Compound 6, N-[4-(diethylamino)butyl]-- 2,2,2-trifluoro-N-({4-[(trifluoroacetamido)-methyl]pyridin-2-yl}methyl)acetamide], the 50% inhibitory concentration (IC50) on KDM6B (JMJD3) is greater than 2.5 µM; against KDM5B it was less than 0.25 µM; at KDM2B (FBXL10) it was greater than 2.5 µM; at KDM6A (UTX), greater than 2.5 µM.

`CNC(C#N)c1ccnc(CNCCCN(C)C)c1` (stereo not drawn) [Compound 24, 2-[2-({[3-(dimethylamino)propyl]-amino}methyl)pyridin-4-yl]-2-(methylamino)-acetonitrile]: the 50% inhibitory concentration (IC50) on KDM6B (JMJD3) is greater than 2.5 µM; on KDM5B, less than 0.25 µM; at KDM2B (FBXL10) it was greater than 2.5 µM; at KDM6A (UTX), greater than 2.5 µM.

As to `CC(C#N)NCc1ccnc(CNCCCN(C)C)c1` (stereo not drawn) [Compound 22, 2-({[2-({[3-(dimethylamino)propyl]-amino}methyl)pyridin-4-yl]methyl}amino)-propanenitrile], the IC50 at KDM6B (JMJD3) is greater than 2.5 µM; against KDM5B, less than 0.25 µM; on KDM2B (FBXL10), greater than 2.5 µM; at KDM6A (UTX), greater than 2.5 µM.

As for `CN(C)CCCCNCc1cc(C=O)ccn1` [Compound 108, 2-({[4-(dimethylamino)-butyl]amino}methyl)-pyridine-4-carbaldehyde], the IC50 at KDM6B (JMJD3) is greater than 2.5 µM; against KDM5B, less than 0.25 µM; on KDM2B (FBXL10), greater than 2.5 µM; at KDM6A (UTX) it was greater than 2.5 µM.

On to `CN(C)C/C=C\CNCc1cc(C=O)ccn1` [Compound 99, 2-({[(2Z)-4-(dimethylamino)-but-2-en-1-yl]amino}methyl)-pyridine-4-carbaldehyde], for which the IC50 on KDM6B (JMJD3), against KDM5B, at KDM2B (FBXL10) and on KDM6A (UTX) was greater than 2.5 µM in each case.

`CN(C)CCCCCNCc1cc(CN)ccn1` [Compound 8, [2-({[5-(dimethylamino)pentyl]-amino}methyl)pyridin-4-yl]methanamine]: the 50% inhibitory concentration (IC50) is greater than 2.5 µM on KDM6B (JMJD3), less than 0.25 µM against KDM5B, greater than 2.5 µM at KDM2B (FBXL10) and greater than 2.5 µM on KDM6A (UTX).

For the compound `CN(C)CC1CCC(CNCc2cc(/C=N/C3CC3)ccn2)CC1` (stereo not drawn) [Compound 46, N-[(2-{[({4-[(dimethylamino)-methyl]cyclohexyl}-methyl)amino]-methyl}pyridin-4-yl)methylidene]-cyclopropanamine], the 50% inhibitory concentration (IC50) at KDM6B (JMJD3) is greater than 2.5 µM; at KDM5B, less than 0.25 µM; at KDM2B (FBXL10), greater than 2.5 µM; at KDM6A (UTX) it was greater than 2.5 µM.

Regarding `c1ccc(CN2CCC[C@H]2CNCc2cc(CNCC3CC3)ccn2)cc1` [Compound 16, {[(2S)-1-benzylpyrrolidin-2-yl]methyl}[(4-{[(cyclopropylmethyl)-amino]methyl}pyridin-2-yl)methyl]amine], the IC50 at KDM6B (JMJD3), against KDM5B, on KDM2B (FBXL10) and on KDM6A (UTX) was greater than 2.5 µM each time.

For the compound `CN(C)C(=O)CNCc1cc(CNCC#N)ccn1` [Compound 13, 2-{[(4-{[(cyanomethyl)amino]-methyl}pyridin-2-yl)methyl]amino}-N,N-dimethylacetamide], the IC50 at KDM6B (JMJD3) was greater than 2.5 µM; at KDM5B, 0.25 to 2.5 µM; on KDM2B (FBXL10), greater than 2.5 µM; at KDM6A (UTX) it was greater than 2.5 µM.

With `CCN(CC)CCCCNC(=O)CNCc1cc(/C=N/C2CC2)ccn1` [Compound 48, 2-[({4-[N-cyclopropyl-carboximidoyl]pyridin-2-yl}methyl)amino]-N-[4-(diethylamino)-butyl]acetamide], the IC50 at KDM6B (JMJD3), against KDM5B, on KDM2B (FBXL10) and at KDM6A (UTX) was greater than 2.5 µM throughout.

For `CN1CCN(C(=O)CNCc2cc(/C=N/C3CC3)ccn2)CC1` [Compound 54, 2-[({4-[N-cyclopropyl-carboximidoyl]-pyridin-2-yl}methyl)amino]-1-(4-methylpiperazin-1-yl)ethan-1-one], the concentration for half-maximal inhibition (IC50) on KDM6B (JMJD3) was greater than 2.5 µM; against KDM5B, 0.25 to 2.5 µM; on KDM2B (FBXL10), greater than 2.5 µM; at KDM6A (UTX) it was greater than 2.5 µM.

Take `CN(C)CCNCc1cc(CNC(C#N)C2CC2)ccn1` (stereo not drawn) [Compound 21, 2-cyclopropyl-2-({[2-({[2-(dimethylamino)ethyl]-amino}methyl)pyridin-4-yl]methyl}amino)-acetonitrile]: the IC50 on KDM6B (JMJD3) is greater than 2.5 µM; on KDM5B, 0.25 to 2.5 µM; at KDM2B (FBXL10), greater than 2.5 µM; on KDM6A (UTX), greater than 2.5 µM.

Turning to `CN(C)C(=O)CNCc1cc(CNCCF)ccn1` [Compound 14, 2-{[(4-{[(2-fluoroethyl)amino]-methyl}pyridin-2-yl)methyl]amino}-N,N-dimethylacetamide], the IC50 on KDM6B (JMJD3), at KDM5B, on KDM2B (FBXL10) and at KDM6A (UTX) was greater than 2.5 µM in each case.

For the compound `C#CCN(C)C(=O)CNCc1cc(/C=N/C2CC2)ccn1` [Compound 56, 2-[({4-[N-cyclopropyl-carboximidoyl]-pyridin-2-yl}methyl)amino]-N-methyl-N-(prop-2-yn-1-yl)acetamide], the IC50 at KDM6B (JMJD3), on KDM5B, at KDM2B (FBXL10) and at KDM6A (UTX) was greater than 2.5 µM throughout.

The term IC50 denotes the concentration needed to halve the response being measured.
